Laboratory results: patent US10980782B2

Columns and labels:
Assay type in all cases: in vivo
[1] = system: human colorectal cancer HCT-15; experiment: Human tumor xenograft in nude mice, tumor inhibition rate, HCT-15; conditions: HCT-15 xenograft
Experimental: (§1) 1) Number of animals: there are 6 nude mice for each experimental group and positive control group; weighing: 20-21 g.
(§2) 2) Dosage and regimen of administration: the dose is described in the portion of the experimental results. The injection volume is 0.2 ml/mouse.
(§3) 3) Control groups: the negative control is the corresponding vehicle. The positive control is taxol which is a widely clinically used antitumor drug.
(§4) Under aseptic conditions, a tumor source with vigorous growth was taken to prepare a cell suspension of about 1-3×10^7/ml by a homogenization method. The suspension was injected subcutaneously into subaxillary region of nude mice at 0.2 ml/mouse. The drug was administered upon the tumor touchable. The drug was administered according to the regime. The animals in each group were sacrificed after the administration of three to four weeks. The tumors were taken and weighed, and the tumor inhibition rate was calculated according to the following formula: Tumor inhibition rate %=[(average tumor weight of the negative control group−average tumor weight of the compound administered group)/average tumor weight of the negative control group)×100%

[2] = system: human lung cancer A549; experiment: Human tumor xenograft in nude mice, tumor inhibition rate, A549; conditions: alone at 50 mg/kg/d, iv×3, q3d
[3] = system: human liver cancer Hep-G2; experiment: Human tumor xenograft in nude mice, tumor inhibition rate, Hep-G2
Experimental: as §1, §2, §3, §4

[4] = system: human prostate cancer PC-3; experiment: Human tumor xenograft in nude mice, tumor inhibition rate, PC-3; conditions: PC-3 xenograft, 10 mg/kg/time, iv×7qd
Experimental: 1) Number of animals: there are 6 nude mice for each experimental group and positive control group; weighing: 20-21 g. The negative control has two groups.
as §2, §3, §4

Compound O=c1[nH]cc(F)c(=O)[nH]1 [5 Fu, 5-fluorouracil] has a tumor inhibition rate ([1]; alone at 15 mg/kg/d, iv×7, qd) of 42.71%.

Nc1ccn([C@@H]2O[C@H](CO)[C@@H](O)C2(F)F)c(=O)n1 [Gemcitabine] showed a tumor inhibition rate [2] of 39.23%.

CC(=O)O[C@H]1C(=O)[C@@]2(C)[C@H]([C@H](OC(=O)c3ccccc3)[C@]3(O)C[C@H](OC(=O)[C@H](O)[C@@H](NC(=O)c4ccccc4)c4ccccc4)C(C)=C1C3(C)C)[C@]1(OC(C)=O)CO[C@@H]1C[C@@H]2O [taxol] showed a tumor inhibition rate ([1]; 10 mg/kg/time, iv×7qd) of 52.2%, a tumor inhibition rate ([3]; 10 mg/kg/time, iv×7qd) of 52.2% and a tumor inhibition rate [4] of 41.31%.

Compound N.N.[Cl][Pt][Cl] [DDP, Cisplatin] has a tumor inhibition rate ([3]; alone at 1 mg/kg/d, iv×7, qd) of 45.33%.
